From patent US12121565B2, “Methods of treatment of specific cancers with NLRP3 inhibitors and anti-PD1/PD-L1 antibodies” (Duke University, priority 2019, dated 2024)

Legend:
[1] = tested on: BRAFV600E PTEN−/− melanoma cell line; assay: In vitro treatment of melanoma cell line followed by Western blot, qRT-PCR, IP, ASC polymerization or ELISA; format: cell-based, mouse; details: with or without NLRP3 inhibitor MCC950
Text: Braf^V600EPten^−/− (male, BPD6 (40)), Braf^V600EPten^−/−-Wnt5a^KD (40), Braf^V600EPten^−/−-CXCL5^KD, Braf^V600EPten^−/−-PDL1^KD, Braf^V600EPten^−/−-NLRP3^KD, OVA-expressing Braf^V600EPten^−/−, BRAF^V600EPTEN^−/−-STAT3^CA, and Braf^V600EPten^−/−-NTC (40) cell lines were generated using shRNA-expressing lentiviral vectors and cultured as previously described (40): shNLRP3 (Sigma, SHCLN-NM_145827), shPDL1 (Sigma, SHCLND-NM_021893), shWnt5a (Sigma, SHCLND-NM_009524), shTLR4 (Sigma, SHCLNG-NM_025817, and pLKO.1-puro empty vector control (NTC) (Sigma, SHC001). Stable cell lines were selected by puromycin resistance (Sigma-Aldrich, P8833). Murine Lewis Lung Carcinoma (LLC) cell line is from ATCC (1704526). All cell lines were tested Mycoplasma-free by Duke University Cell Culture Facility shared services. All Braf^V600EPten^−/− cell lines and the LLC cell line were maintained at 37° C. in DMEM (Invitrogen) with 2 mM L-glutamine, supplemented with 10% fetal bovine serum, 100 units/ml penicillin. Depending on the experiment, cell lines were treated with Wnt5a (100-200 ng/ml, R&D Systems/Bio-techne, 645-WN-010), IFNγ (100 ng/ml, BioAbChem, 42-IFNg), anti-PD-L1 ab (1-2 μg/ml), Hsp70 (1 μM-10 μM, Enzo, ADI-ESP-502-D), Hsp70 inhibitor (ThermoFisher, VER155008), CLI-095 TLR4 inhibitor (3 μM-10 μM, Invivogen, tlrl-cli95), TLR2-IN-C29 TLR2 inhibitor (1 μM-10 μM, Glixx, GLXC-06203), MPLA TLR4 agonist (10 μM, Enzo, ALX-581-205-C100), LPS (Lipopolysaccharide) (10 ng, Sigma-Aldrich, L4391-1MG), ATP (1 mM-5 mM, Invivogen, tlrl-atpl), MCC950 NLRP3 inhibitor (2.5 μM-10 μM, Invivogen, inh-mcc), XAV939 β-catenin inhibitor (0.5-1.0 μM, Sigma-Aldrich, X3004-5MG), 2-Aminopurine PKR inhibitor (1 mM-5 mM, Invivogen, tlrl-apr), Verteporfin YAP inhibitor (0.1 μM-1 μM, R&D Systems/Bio-techne, 530510) or vehicle control either for 24 or 48 hrs prior to in vitro and in vivo experiments. Control siRNA (Santa Cruz, sc-37007). TLR4 siRNA (SantaCruz, sc-40261).
(§1) OT-1 CD8 cell activation was performed by incubating isolated splenocytes of OT-1 transgenic mice with IL-2 (100 U/ml) and SIINFEKL peptide (1 μg/ml, New England Peptide, BP10-915) for 3 days followed by magnetic bead CD8 purification according to the manufacturer's instructions (Miltenyi biotec, 130-104-075). Activated OT-1 CD8 cells were incubated with Braf^V600EPten^−/−-OVA cells and treated with anti-PD1 ab (1 μg/ml) for 72 hrs at a tumor cell:CD8^+ T cell ratio of 1:5. In separate experiments, Braf^V600EPten^−/− cells were treated with increasing concentrations of Dacarbazine (10 μmol-400 μmol).
Tumor tissue or cells were homogenized in NP40 lysis buffer (Sigma-Aldrich) supplemented with complete protease inhibitor and phosphatase inhibitor (Roche). Cells were lysed in Laemmli sample buffer after treatment and subjected to SDS-polyacrylamide gel electrophoresis. After transferring onto PVDF membranes (Bio-Rad), monoclonal and polyclonal primary antibodies and appropriate HRP-conjugated secondary antibodies were utilized for blotting. For the immunoprecipitation assays, cells were lysed with TBS buffer (50 mM Tris-HCl (pH 7.4), 150 mM NaCl) containing 0.5% Triton X-100, EDTA-free protease inhibitor cocktail and phosphatase inhibitor cocktail, precleared with protein A/G beads, and then incubated with 1 μg of appropriate antibodies or isotype control IgG on a rotator overnight at 4° C. then incubated with protein A/G-agarose at 4° C. for 1 hour. After 5 washes with TBS buffer, immunoprecipitated complexes were eluted in sample buffer by boiling and subjected to immunoblot analysis. Immunoblots were visualized by chemiluminescence substrate (ThermoFisher) and imaged by a ChemiDoc XRSplus system (BioRad). For the ASC polymerization assay, cells were lysed with TBS buffer containing 0.5% Triton X-100, EDTA-free protease inhibitor cocktail and phosphatase inhibitor cocktail. The lysates were centrifuged at 4,000 g at 4° C. for 15 min. […]

[2] = tested on: OT-1 CD8+ T cell:BRAFV600E OVA melanoma coculture; assay: Coculture of OT-1 CD8+ T cells with OVA-expressing melanoma cells followed by Western blot; format: cell-based, mouse; details: increasing concentrations of NLRP3 inhibitor
Procedure: as §1
Tumor tissue or cells were homogenized in NP40 lysis buffer (Sigma-Aldrich) supplemented with complete protease inhibitor and phosphatase inhibitor (Roche). Cells were lysed in Laemmli sample buffer after treatment and subjected to SDS-polyacrylamide gel electrophoresis. After transferring onto PVDF membranes (Bio-Rad), monoclonal and polyclonal primary antibodies and appropriate HRP-conjugated secondary antibodies were utilized for blotting. […]

SMILES: CC(C)(O)c1coc(S(=O)(=O)NC(=O)Nc2c3c(cc4c2CCC4)CCC3)c1 [MCC950, N-[[(1,2,3,5,6,7-hexahydro-s-indacen-4-yl)amino]carbonyl]-4-(1-hydroxy-1-methylethyl)-2-furansulfonamide]
- ATP stimulation of HSP70 release [1]: block
- CD8+ T cell-mediated induction of HSP70 release [2]: block
